Target: Aβ42 (amyloid β-protein 42) (Homo sapiens, UniProt P05067)
Assay: ThT fluorescence fibrillogenesis assay
Type: biochemical

Aβ42 (amyloid β-protein 42), sequence (P05067 672-713): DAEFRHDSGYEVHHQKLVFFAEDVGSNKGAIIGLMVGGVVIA

SMILES | IC50 [nM]
O=C(O[C@@H]1Cc2c(O)cc(O)cc2O[C@@H]1c1cc(O)c(O)c(O)c1)c1cc(O)c(O)c(O)c1 [EGCG] | 2400 ± 400
Oc1ccc2c(c1)OC[C@]1(O)Cc3cc(O)c(O)cc3[C@H]21 [brazilin] | 1500 ± 300

From article PMC4303869 (Scientific Reports, 2015)
